Literature values as cited in EP4605403B1, “METHOD AND COMPOSITION FOR OLIGONUCLEOTIDE SYNTHESIS” (Bachem Holding AG, priority 2022, dated 2024).

Settings: protonated form of the base; in water at 25 °C; from A. Fischer et al., J. Chem. Soc. 1964, 3591-3596

SMILES: Nc1ccncc1 [4-aminopyridine]
- pKa-value: 9.1
